Structures can show the parent of a compound that is named as a salt.
How the values were obtained:
[1] = tested on: Kasumi1 leukemia cancer cell line; experiment: Cell viability assay (Cell Titer Glo), Kasumi1; type: cell-based; conditions: Homo sapiens, Kasumi 1, Table 7a, 72 hour incubation
Protocol: (§1) Materials: • Cell Lines (Treated according to ATCC guidelines) • Cell Titer Glo (Promega Cat #G7572) • DMSO • 96-well White Tissue Culture Treated Plates (Perkin Elmer Cat #60005680)
(§2) Cells were seeded in a white 96-well tissue culture treated plate at a density of 1500 cells in 90 μL of media per well and allowed to settle overnight. A ten point serial dilution of drugs was prepared at 10×concentration in media with the final assay concentrations starting at 30 μM, 10 μM, 3 μM, 1 μM, 0.3 μM . . . 0 μM. A dilution of DMSO was included as a control. The assay was set up by adding 10 μL of the corresponding drug to each well in duplicate, followed by a 72 hour incubation at 37° C., 5% CO2. Cell viability was quantified by adding 90 μL of Cell Titer Glo to each well and incubating at room temperature for 10 minutes. The reaction was quantified by measuring luminescence using the Envision Plate Reader. Data was analyzed using Graphpad Prism 7 software.

[2] = tested on: A673 Ewingsarcoma cell line; experiment: Cell viability assay (Cell Titer Glo), A673; type: cell-based; conditions: Homo sapiens, A673, Table 7a, 72 hour incubation
Protocol: as §1, §2

[3] = tested on: MiaPaCa2 pancreatic cancer cell line; experiment: Cell viability assay (Cell Titer Glo), MiaPaCa2; type: cell-based; conditions: Homo sapiens, MIA PaCa-2; Table 7a; pancreatic cancer cell line, 72 hour incubation
Protocol: as §1, §2

[4] = tested on: HPAC pancreatic cancer cell line; experiment: Cell viability assay (Cell Titer Glo), HPAC; type: cell-based; conditions: Homo sapiens, HPAC; Table 7a; pancreatic cancer cell line, 72 hour incubation
Protocol: as §1, §2

CDK7/CycH/MAT1 = CDK7/CycH/MAT1 (Homo sapiens, UniProt P50613); experiment: Kinase Glo (ADP-Glo) biochemical assay, CDK7; conditions: CDK7/CycH/MAT1 40 ng, ATP 1 μM, 60 minutes at RT, luminescence
Protocol: Materials: • Assay Buffer: 50 mM HEPES, 3 mM MgCl2, 3 mM MnCl2, 1 mM DTT, 3 μM Na3VO4, pH 7.5 • Substrate RB • CTF Peptide (ProQinase #: 0040-0000-6) • Enzymes • CDK7/CycH/MAT1 (ProQinase #: 0366-0360-4) • ADP-Glo™ Assay (Promega #: V9101) • ATP: 10 mM • ADP-Glo™ Reagent • Kinase Detection Reagent • 384-well white assay plates
A ten point serial dilution of compound was prepared at 5X concentration in assay buffer with the final assay concentrations starting at 30 μM, 10 μM, 3 μM, 1 μM . . . 0 μM. Enzyme, substrate, and ATP were used at 40 ng, 200 ng (or 400 ng)* and 1 μM, respectively. The assay plate was set up by mixing the components in a total reaction volume of 10 μL per well. The plate was centrifuged gently for 10 seconds and incubated at room temperature (RT) for 60 minutes in the dark. The ADP-Glo Reagent and kinase detection reagent were added and incubated as recommended. The reaction was quantified by measuring luminescence on the Perkin Elmer Envision plate reader.

[5] = tested on: A2780 ovarian cancer cell line; experiment: Cell viability assay (Cell Titer Glo), A2780; type: cell-based; conditions: Homo sapiens, A2780, Table 7a, 72 hour incubation
Protocol: as §1, §2

Chain of CDK7/CycH/MAT1 (P50613 whole entry): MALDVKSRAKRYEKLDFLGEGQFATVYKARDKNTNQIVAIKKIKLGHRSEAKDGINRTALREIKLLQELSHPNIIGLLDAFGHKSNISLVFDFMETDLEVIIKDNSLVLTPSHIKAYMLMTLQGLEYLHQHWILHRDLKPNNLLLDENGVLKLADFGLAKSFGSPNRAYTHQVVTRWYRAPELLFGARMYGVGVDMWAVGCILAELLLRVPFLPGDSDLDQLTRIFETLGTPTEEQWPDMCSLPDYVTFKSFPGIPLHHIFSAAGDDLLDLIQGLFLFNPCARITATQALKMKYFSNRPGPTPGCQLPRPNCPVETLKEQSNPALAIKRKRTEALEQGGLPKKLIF
Chain of CDK7/CycH/MAT1 (P51946 whole entry partner): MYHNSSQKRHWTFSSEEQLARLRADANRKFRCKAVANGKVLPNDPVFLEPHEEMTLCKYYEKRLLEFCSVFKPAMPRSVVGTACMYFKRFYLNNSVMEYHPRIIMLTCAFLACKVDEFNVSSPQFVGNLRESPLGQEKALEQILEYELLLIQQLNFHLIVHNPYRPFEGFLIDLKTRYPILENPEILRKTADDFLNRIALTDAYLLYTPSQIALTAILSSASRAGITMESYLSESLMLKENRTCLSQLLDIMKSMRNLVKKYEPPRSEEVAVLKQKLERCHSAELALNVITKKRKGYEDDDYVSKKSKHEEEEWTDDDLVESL
Chain of CDK7/CycH/MAT1 (P51948 whole entry partner): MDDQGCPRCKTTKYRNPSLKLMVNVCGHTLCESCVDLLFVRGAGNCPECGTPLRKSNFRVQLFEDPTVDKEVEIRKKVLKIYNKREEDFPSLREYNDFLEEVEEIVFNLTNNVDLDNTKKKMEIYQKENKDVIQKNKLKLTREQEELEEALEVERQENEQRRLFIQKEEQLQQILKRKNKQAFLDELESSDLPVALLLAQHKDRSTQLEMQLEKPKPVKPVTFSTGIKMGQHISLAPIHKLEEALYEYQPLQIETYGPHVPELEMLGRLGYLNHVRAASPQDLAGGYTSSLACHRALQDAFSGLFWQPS

| Structure (SMILES) | IC50 [1] [nM] | IC50 [2] [nM] | IC50 [3] [nM] | IC50 [4] [nM] | IC50 (CDK7/CycH/MAT1) [nM] | IC50 [5] [nM] |
| --- | --- | --- | --- | --- | --- | --- |
| c1ccc(CNc2cc(O[C@H]3CCNC3)nn3c(C4CC4)cnc23)cc1 [Compound 12, (S)—N-benzyl-3-cyclopropyl-6-(pyrrolidin-3-yloxy)imidazo[1,2-b]pyridazin-8-amine] |  |  |  |  | 100 to 1000 |  |
| CN1CC[C@@H](Oc2cc(NCc3ccccc3)c3ncc(C4CC4)n3n2)C1 [Compound 10, (R)—N-benzyl-3-cyclopropyl-6-((1-methylpyrrolidin-3-yl)oxy)imidazo[1,2-b]pyridazin-8-amine] |  |  |  |  | 100 to 1000 |  |
| CN1CC[C@@H](Oc2cc(Nc3cccc(F)c3)c3ncc(C4CC4)n3n2)C1 [Compound 3, (R)-3-cyclopropyl-N-(3-fluorophenyl)-6-((1-methylpyrrolidin-3-yl)oxy)imidazo[1,2-b]pyridazin-8-amine] |  |  |  |  | 100 to 1000 |  |
| CC(C)c1cnc2c(NCc3cccc(C(F)(F)F)c3)cc(SC3CCNCC3)nn12 [Compound 55, 3-isopropyl-6-(piperidin-4-ylthio)-N-(3-(trifluoromethyl)benzyl)imidazo[1,2-b]pyridazin-8-amine hydrochloride] |  |  |  |  | < 100 |  |
| CC(C)c1cnc2c(NCc3ccccc3OC(F)(F)F)cc(OC[C@@H]3CNCCO3)nn12 [Compound 49, (S)-3-isopropyl-6-(morpholin-2-ylmethoxy)-N-(2-(trifluoromethoxy)benzyl)imidazo[1,2-b]pyridazin-8-amine hydrochloride] |  |  |  |  | 100 to 1000 |  |
| CC(C)c1cnc2c(NCc3ccccc3OC(F)(F)F)cc(OC3CCNCC3F)nn12 (centres unmarked) [Compound 69, 6-((3-fluoropiperidin-4-yl)oxy)-3-isopropyl-N-(2-(trifluoromethoxy)benzyl)imidazo[1,2-b]pyridazin-8-amine hydrochloride] |  |  |  |  | 100 to 1000 |  |
| c1ccc(CNc2cc(O[C@@H]3CCCNC3)nn3c(C4CC4)cnc23)cc1 [Compound 13, (R)—N-benzyl-3-cyclopropyl-6-(piperidin-3-yloxy)imidazo[1,2-b]pyridazin-8-amine] |  |  |  |  | 100 to 1000 |  |
| CN1CCC[C@H](Oc2cc(Nc3cccc(F)c3)c3ncc(C4CC4)n3n2)C1 [Compound 7, (S)-3-cyclopropyl-N-(3-fluorophenyl)-6-((1-methylpiperidin-3-yl)oxy)imidazo[1,2-b]pyridazin-8-amine] |  |  |  |  | > 1000 |  |
| CC(C)c1cnc2c(NCc3ccccc3OC(F)(F)F)cc(OC3CCNCC3(F)F)nn12 (centres unmarked) [Compound 71, 6-((3,3-difluoropiperidin-4-yl)oxy)-3-isopropyl-N-(2-(trifluoromethoxy)benzyl)imidazo[1,2-b]pyridazin-8-amine hydrochloride] |  |  |  |  | > 1000 |  |
| c1ccc(CNc2nc(NC3CCNCC3)cn3c(C4CC4)cnc23)cc1 [Compound 31, N8-benzyl-3-cyclopropyl-N6-(piperidin-4-yl)imidazo[1,2-α]pyrazine-6,8-diamine hydrochloride] |  |  |  |  | > 1000 |  |
| COC(=O)[C@@H](N)CSc1cc(NCc2ccccc2)c2ncc(C3CC3)n2n1 [Compound 30, methyl S-(8-(benzylamino)-3-cyclopropylimidazo[1,2-b]pyridazin-6-yl)-L-cysteinate hydrochloride] |  |  |  |  | 100 to 1000 |  |
| CC(C)Oc1ccccc1CNc1cc(SC2CCNCC2)nn2c(C(C)C)cnc12 [Compound 67, N-(2-isopropoxybenzyl)-3-isopropyl-6-(piperidin-4-ylthio)imidazo[1,2-b]pyridazin-8-amine hydrochloride] |  |  |  |  | < 100 |  |

Second part, the compound after the results:

| IC50 [1] [nM] | IC50 [2] [nM] | IC50 [3] [nM] | IC50 [4] [nM] | IC50 (CDK7/CycH/MAT1) [nM] | IC50 [5] [nM] | Structure (SMILES) |
| --- | --- | --- | --- | --- | --- | --- |
| < 1000 | 1000 to 5000 | < 1000 | < 1000 | < 100 |  | CC(C)c1cnc2c(NCc3ccccc3-n3cccn3)cc(SC3CCCNC3)nn12 (centres unmarked) [Compound 63, N-(2-(1H-pyrazol-1-yl)benzyl)-3-isopropyl-6-(piperidin-3-ylthio)imidazo[1,2-b]pyridazin-8-amine hydrochloride] |
| < 1000 | < 1000 | < 1000 | 1000 to 5000 | < 100 |  | CC(C)c1cnc2c(NCc3ccccc3N(C)C)cc(SC3CCNCC3)nn12 [Compound 64, N-(2-(dimethylamino)benzyl)-3-isopropyl-6-(piperidin-4-ylthio)imidazo[1,2-b]pyridazin-8-amine hydrochloride] |
| 1000 to 5000 |  | 1000 to 5000 | 1000 to 5000 | < 100 | 1000 to 5000 | CC(C)c1cnc2c(NCc3ccccc3OC(F)(F)F)cc(OC3CCNCC3F)nn12 (centres unmarked) [Compound 70, 6-((3-fluoropiperidin-4-yl)oxy)-3-isopropyl-N-(2-(trifluoromethoxy)benzyl)imidazo[1,2-b]pyridazin-8-amine hydrochloride] |
| 1000 to 5000 | < 1000 | < 1000 | < 1000 | < 100 |  | CC(C)c1cnc2c(NCc3ccccc3OC(F)F)cc(SC3CCNCC3)nn12 [Compound 66, N-(2-(difluoromethoxy)benzyl)-3-isopropyl-6-(piperidin-4-ylthio)imidazo[1,2-b]pyridazin-8-amine hydrochloride] |
| 1000 to 5000 |  | 1000 to 5000 | 1000 to 5000 | < 100 | 1000 to 5000 | COc1ccccc1CNc1cc(SC2CCNCC2F)nn2c(C(C)C)cnc12 (centres unmarked) [Compound 73, 6-((3-fluoropiperidin-4-yl)thio)-3-isopropyl-N-(2-methoxybenzyl)imidazo[1,2-b]pyridazin-8-amine hydrochloride] |
| 1000 to 5000 |  | 1000 to 5000 | < 1000 | < 100 | 1000 to 5000 | Fc1cccc(Nc2cc(O[C@@H]3CCNC3)nn3c(C4CC4)cnc23)c1 [Compound 6, (R)-3-cyclopropyl-N-(3-fluorophenyl)-6-(pyrrolidin-3-yloxy)imidazo[1,2-b]pyridazin-8-amine] |
| < 1000 | 1000 to 5000 | < 1000 | 1000 to 5000 | < 100 |  | CC(C)c1cnc2c(NCc3ccccc3-n3cccn3)cc(SC3CCNCC3)nn12 [Compound 62, N-(2-(1H-pyrazol-1-yl)benzyl)-3-isopropyl-6-(piperidin-4-ylthio)imidazo[1,2-b]pyridazin-8-amine hydrochloride] |
| 1000 to 5000 |  | < 1000 | < 1000 | < 100 | < 1000 | CC(C)c1cnc2c(NCc3ccc(F)cc3F)cc(SC3CCNCC3)nn12 [Compound 56, N-(2,4-difluorobenzyl)-3-isopropyl-6-(piperidin-4-ylthio)imidazo[1,2-b]pyridazin-8-amine hydrochloride] |
|  |  |  |  | < 100 |  | CCOc1ccccc1CNc1cc(SC2CCNCC2)nn2c(C(C)C)cnc12 [Compound 65, N-(2-ethoxybenzyl)-3-isopropyl-6-(piperidin-4-ylthio)imidazo[1,2-b]pyridazin-8-amine hydrochloride] |
|  |  |  |  | < 100 |  | FC(F)(F)c1cnc2c(NCc3ccccc3)cc(SC3CCNCC3)nn12 [Compound 78, N-benzyl-6-(piperidin-4-ylthio)-3-(trifluoromethyl)imidazo[1,2-b]pyridazin-8-amine hydrochloride] |
|  |  |  |  | < 100 |  | CC(C)c1cnc2c(NCc3ccccc3-n3cccn3)nc(SC3CCCNC3)cn12 (stereo not drawn) [Compound 68, N-(2-(1H-pyrazol-1-yl)benzyl)-3-isopropyl-6-(piperidin-3-ylthio)imidazo[1,2-α]pyrazin-8-amine hydrochloride] |
| 1000 to 5000 |  | 1000 to 5000 | 1000 to 5000 | < 100 | 1000 to 5000 | CC(C)c1cnc2c(NCc3ccccc3C(F)(F)F)cc(SC3CCNCC3F)nn12 (centres unmarked) [Compound 77, 6-((3-fluoropiperidin-4-yl)thio)-3-isopropyl-N-(2-(trifluoromethyl)benzyl)imidazo[1,2-b]pyridazin-8-amine hydrochloride] |
|  |  |  |  | < 100 |  | CC(C)c1cnc2c(NCc3ccccc3)cc(S[C@H]3CCCNC3)nn12 (single isomer, unassigned) [Compound 42, hydrochloride] |
|  |  |  |  | < 100 |  | CC(C)c1cnc2c(NCc3cccc(OC(F)(F)F)c3)cc(SC3CCNCC3)nn12 [Compound 54, 3-isopropyl-6-(piperidin-4-ylthio)-N-(3-(trifluoromethoxy)benzyl)imidazo[1,2-b]pyridazin-8-amine hydrochloride] |

From patent US20230348475A1, “IMIDAZOPYRIDAZINE AND IMIDAZOPYRAZINE COMPOUNDS AS INHIBITORS OF CDK7” (THE TRANSLATIONAL GENOMICS RESEARCH INSTITUTE, priority 2020, published 2023)
